How the values were obtained:
HCT-116 = HCT-116 cells treated with sulindac sulfide, apoptosis and proliferation; format: cell-based, human; settings: 100 μM, 3 days
SNAIL [1] = assay: HCT-116 cells treated with sulindac sulfide, SNAIL by RT-PCR; format: cell-based, human; settings: 100 μM, 3 days, p=0.007
Experimental: (§1) For chemopreventive studies, we treated the human CRC cell line HCT-116 with sulindac sulfide (100 μM) or vehicle for 3 days and analyzed SNAIL and E-Cadherin by RT-PCR. In order to evaluate frequency of SNAIL overexpression in human colon cancer, we immunohistochemically probed a tissue array using a poly clonal antibody. Finally, to determine whether SNAIL is implicated in E-cadherin donwregulation in CRC, we treated 10 week old male MIN mice with antisense PMO to SNAIL (250 μg/day for 5 weeks) and examined E-cadherin levels in the uninvolved intestine using Western blot analysis.

E-Cadherin [2] = assay: HCT-116 cells treated with sulindac sulfide, E-Cadherin by RT-PCR; format: cell-based, human; settings: 100 μM, 3 days
Experimental: as §1

Apc^Min/+ (MIN) mouse = assay: MIN mouse, antisense SNAIL PMO IP for four weeks, adenomatous polyp / tumor formation; format: in vivo; settings: MIN mice, 4 weeks treatment, IP 250 μg per day, five days per week
Source text: The Apc^Min/+ (MIN) mouse is a model for colorectal cancer and was used by the inventors to study the effects of antisense SNAIL PMO on the incidence and development of intestinal precancerous lesions (see e.g. Examples 2&3). The MIN mouse has a germ-line mutation in the adenomatous polyposis coli (Apc) gene which leads to familial adenomatous polyposis (FAP). Inactivation of Apc is found in 80% of sporadic human colorectal cancers and in humans with FAP (Kinzler and Vogelstein 1996). The MIN mouse model mimics the rapid development of adenomatous polyps that affect humans with germ-line inactivation of one Apc gene and therefore is a respected model for human colon carcinogenesis.
This observation clearly supports the role of SNAIL in the progression of colon carcinogenesis and as a potent target for anti-carcinogenic therapies.
Ten week-old MIN mice were injected intraperitonealy (IP) with SNAIL PMO (SEQ ID NO: 11) at a dose of 250 μg per day, five days per week for four weeks. Control mice were not injected with any antisense compound and were allowed to develop colon cancers.

E-cadherin [3] = assay: MIN mice treated with antisense PMO to SNAIL, E-cadherin in uninvolved intestine by Western blot; format: in vivo, mouse; settings: 10 week old male MIN mice, 250 μg/day for 5 weeks, p=0.027
Experimental: as §1

APC^MIN mouse = assay: MIN mice, anti-SNAIL PMO daily i.p. 5 weeks, intestinal tumors scored; format: in vivo; settings: 200 μg/20 g mouse
Experimental: (§2) Sixteen MIN mice (9-10 week old) were randomized to daily i.p. injections for 5 weeks with either saline or anti-SNAIL phosphorodiamidate morpholino antisense oligomers (PMO; 200 μg/20 g mouse). Animals were given BrdU 2 h prior to sacrifice and intestinal tumors were scored under magnification by observers blinded to treatment group. Immunohistochemical analysis was performed on formalin fixed intestinal segments for proliferation (BrdU labeling), apoptosis (using activated caspase 3) and SNAIL downregulation. The samples were scored by a gastrointestinal pathologist.

SNAIL [4] = assay: MIN mice, immunohistochemical analysis of intestinal segments for SNAIL downregulation; format: in vivo; settings: daily i.p. 5 weeks, 200 μg/20 g mouse
Experimental: as §2

activated caspase 3 = assay: MIN mice, immunohistochemical analysis of intestinal segments for apoptosis (activated caspase 3); format: in vivo; settings: daily i.p. 5 weeks, 200 μg/20 g mouse, immunohistochemistry, control 1.00 ± 0.74, p < 0.05
Experimental: as §2

[5] = tested on: mucosal proliferation (BrdU labeling); assay: MIN mice, immunohistochemical analysis of intestinal segments for proliferation (BrdU labeling); format: in vivo; settings: daily i.p. 5 weeks, 200 μg/20 g mouse, BrdU 2 h prior to sacrifice, control 8.92 ± 8.00, p < 0.05
Experimental: as §2

MIN mice = assay: Hair loss (alopecia) in PMO treated MIN mice; format: in vivo, mouse; settings: antisense treated MIN mice, Example 3
Source text: As described above, SNAIL binds the E-box motifs of E-cadherin, and therefore inhibits E-cadherin expression. E cadherin is required for proper hair follicle cycling (Young, Boussadia et al. 2003). E-cadherin binds with β-catenin altering its location within the cell as well as reducing its availability. Decreasing the level of SNAIL leads to increased E-cadherin which then limits the availability of β-catenin. The decrease in β-catenin leads to an increase in genes in the NF-kappa beta pathway, including Fas and TRAF1. […] Antisense SNAIL PMO administered systemically (e.g. intravenous injection as in Example 3) could cause alopecia through Fas-mediated apoptosis of hair follicle cells or because E cadherin levels have increased sufficiently to cause abnormal hair follicle cycling.
as §2

Row | Compound | apoptosis (HCT-116) | proliferation (HCT-116) | SNAIL expression (% of vehicle) (SNAIL [1]) | E-cadherin expression (E-Cadherin [2]) | reduction in formation of adenomatous polyps, colon (Apc^Min/+ (MIN) mouse) [%] | reduction in formation of adenomatous polyps, proximal bowel (Apc^Min/+ (MIN) mouse) [%] | total number of tumors reduced (Apc^Min/+ (MIN) mouse) [%] | increase in intestinal E-cadherin protein (E-cadherin [3]) [%] | Tumor incidence (%) (APC^MIN mouse; control 25.06 ± 4.10, p < 0.05) | anti-tumorigenic effect (decrease) (APC^MIN mouse; versus saline control) [%] | SNAIL (Arbit. Units) (SNAIL [4]; immunohistochemistry, control 2.58 ± 0.67, p < 0.05) | suppression of SNAIL protein expression (SNAIL [4]; versus saline control) [%] | Cleaved Caspase-3 (Arbit. Units) (activated caspase 3) | BrdU Positive (% Total) [5] [% Total] | hair loss (alopecia) (MIN mice) | hair loss (alopecia) (MIN mice; listed as Antisense SNAIL PMO)
1 | CSc1ccc(/C=C2/C(C)=C(CC(=O)O)c3cc(F)ccc32)cc1 [sulindac sulfide] | induced apoptosis | inhibited proliferation | 39.2 % of vehicle | induction |  |  |  |  |  |  |  |  |  |  |  | 
2 | SNAIL PMO: phosphorodiamidate morpholino antisense oligomer GGAGCGCGGCATGTTGGCC, target ncts. 8-26 of GenBank M95604 (all phosphorodiamidate morpholino (PMO)) |  |  |  |  | 44.1 | 41.6 | 21.9 | 26 | 19.57 ± 6.16 | 22 | 2.00 ± 0.58 | 23 | 1.50 ± 0.65 | 3.43 ± 3.80 | pronounced hair loss (alopecia) | induce alopecia
